The record followed here is publication PMC6216040, “Repurposing of an old drug: In vitro and in vivo efficacies of buparvaquone against Echinococcus multilocularis” (International Journal for Parasitology: Drugs and Drug …, 2018).

The subject of this assay is E. multilocularis metacestodes. The experiment in a line: PGI-assay: drug-induced damage on in vitro cultured metacestodes (Pathogen Box screening cascade and EC50). The format is cell-based, Echinococcus multilocularis. Particulars: for PGI release, % of the Tx-100 control, 5d / PGI release, % of the Tx-100 control, 12d: 10 µM, singlets; for PGI release, % of the Tx-100 control, 5d / PGI release, % of Tx-100 control, average, 5d: 5 days of incubation; for PGI release, % of the Tx-100 control, 12d / PGI release, % of Tx-100 control, average, 12d: 12 days of incubation; for PGI release, % of Tx-100 control, average, 5d / PGI release, % of Tx-100 control, average, 12d: confirmatory screening at 10 µM in triplicates, values as % of Tx-100 control.

For `O=C(Nc1c(O)cccc1-c1nc2c(C(=O)O)cccc2o1)c1cc(-c2ccccc2)on1` [MMV676008], the “PGI release, % of the Tx-100 control, 5d” value is -0.73% and the “PGI release, % of the Tx-100 control, 12d” value was -0.73%.
Turning to `Clc1ccc(Cl)c(CO[C@H]2CCCC[C@@H]2n2ccnc2)c1` [MMV676048], the “PGI release, % of the Tx-100 control, 5d” value was found to be 1.62% and the “PGI release, % of the Tx-100 control, 12d” value was 0.30%.
For `CS(=O)(=O)N1CCC(Cn2nc(Cc3cccc4ccccc34)c3c(N)ncnc32)CC1` [MMV676050] the same measures were 0.49% and 0.36%.
`COc1cc(NC(=O)Cc2nn(C)c(=O)c3ccccc23)ccc1Cl` [MMV676053]: the “PGI release, % of the Tx-100 control, 5d” value is on record as -2.85% and the “PGI release, % of the Tx-100 control, 12d” value is reported as -1.21%.
As for `CC(C)(C)OC(=O)N1CCN(c2cc(-c3ccc(Oc4ccccc4)cc3)n[nH]2)CC1` [MMV676057], the “PGI release, % of the Tx-100 control, 5d” value is recorded as -3.83% and the “PGI release, % of the Tx-100 control, 12d” value stood at 2.21%.
`CCCCc1ccc(NC(=O)Nc2ccc(O[C@H]3CCCC[C@@H]3N(C)c3ccccc3)c(F)c2)cc1` [MMV676063]: the “PGI release, % of the Tx-100 control, 5d” value is 2.73%; the “PGI release, % of the Tx-100 control, 12d” value turned out to be 76.51%; the “PGI release, % of Tx-100 control, average, 5d” value (“PGI release, % … average, 5d” below) was -1.39%; the “PGI release, % of Tx-100 control, average, 12d” value (from here on “PGI release, % … average, 12d”) is reported as -1.33%.
As for `CC(=O)N(CCN(C(=O)c1ccc(F)cc1)c1ccccc1)c1ccccc1` [MMV676064], the “PGI release, % of the Tx-100 control, 5d” value is given as -0.20% and the “PGI release, % of the Tx-100 control, 12d” value stood at 0.0545%.
For `Clc1cccc(CO[C@H]2CCc3ccccc3[C@@H]2n2ccnn2)c1` [MMV676159] the same measures were -0.04% and -0.65%.
For `c1ccc(Oc2ccc(-c3cc(CN4CCOCC4)[nH]n3)cc2)cc1` [MMV676161] the same measures were -0.68% and -1.33%.
For `O=C(Nc1ccccc1-c1nc2c(C(=O)O)cccc2o1)c1ccccc1` [MMV676162] the same measures were 0.15% and 0.13%.
With `Nc1ncnc2c1c(Cc1cccc3ccccc13)nn2CC1CCNCC1` [MMV676182], the “PGI release, % of the Tx-100 control, 5d” value is 0.88% and the “PGI release, % of the Tx-100 control, 12d” value is listed as -0.92%.
On to `COC(=O)c1cccc2oc(-c3cccc(OC)c3NC(=O)c3cc(-c4ccccc4)on3)nc12` [MMV676186], for which the “PGI release, % of the Tx-100 control, 5d” value is on record as 1.00% and the “PGI release, % of the Tx-100 control, 12d” value is listed as 13.03%.
For `CC(C)C(Oc1cccc2ccccc12)C(=O)O` (stereo not shown) [MMV676191] the same measures were -0.44% and -4.34%.
In the case of `O=C(c1ccc(F)cc1)N(CCNc1ccccc1)c1ccccc1` [MMV676204], the “PGI release, % of the Tx-100 control, 5d” value worked out at 0.89%; the “PGI release, % of the Tx-100 control, 12d” value stood at 22.26%; the “PGI release, % … average, 5d” value is on record as -0.89%; the “PGI release, % … average, 12d” value is -0.80%.
As to `CN1CCN(c2nccc3nc(-c4ccc(F)c(F)c4)[nH]c23)CC1` [MMV676260], the “PGI release, % of the Tx-100 control, 5d” value came to 0.28% and the “PGI release, % of the Tx-100 control, 12d” value was 0.56%.
In the same order, the values of `C[C@H](C(N)=O)N1CCCC[C@H]1c1ccc(OCc2cccc(F)c2)cc1` [MMV676269] are 1.52% and 1.07%.
In the same order, the values of `C[C@H](C(N)=O)N1CCCC[C@@H]1c1ccc(OCc2cccc(F)c2)cc1` [MMV676270] are -0.98% and -0.91%.
On to `Cc1c[nH]c(CCNC(=O)c2cc(-c3ccc(Cl)cc3)cs2)n1` [MMV676350], for which the “PGI release, % of the Tx-100 control, 5d” value was -0.41% and the “PGI release, % of the Tx-100 control, 12d” value is 1.56%.
For `Nc1ncc(Br)cc1-c1nc2cc(Cl)cnc2[nH]1` [MMV676358] the same measures were 0.16% and -0.55%.
For `Brc1c(-c2ccc3c(c2)OCO3)nc2ncccn12` [MMV676377] the same measures were 0.59% and -0.19%.
Regarding `COc1cccc(OCC(=O)c2ccc(Br)cc2)c1` [MMV676379], the “PGI release, % of the Tx-100 control, 5d” value is -3.68% and the “PGI release, % of the Tx-100 control, 12d” value is -3.36%.
In the same order, the values of `CC(=O)Nc1ccc(NC(=O)c2cc(-c3cc(Cl)ccc3O)n[nH]2)cc1` [MMV676380] are -0.62% and -0.39%.
In the same order, the values of `Cn1ncc2c(N3CCOCC3)nc(NCCc3c[nH]c4ccccc34)nc21` [MMV676382] are 0.80% and -0.14%.
For `CCC(Sc1nc2ccccc2o1)C(=O)Nc1nccs1` (stereo not shown) [MMV676383] the same measures were 0.61% and 4.85%.
As to `N#Cc1nc(-c2ccccc2F)oc1NCCc1ccccc1` [MMV676384], the “PGI release, % of the Tx-100 control, 5d” value is on record as 0.0223% and the “PGI release, % of the Tx-100 control, 12d” value is recorded as -0.18%.
In the same order, the values of `Cc1cccc(Cn2ccc(NC(=O)c3ccc4c(c3)OCO4)n2)c1` [MMV676386] are 0.18% and -0.91%.
In the same order, the values of `COc1cccc(-n2nnnc2S(=O)(=O)Cc2ccccc2)c1` [MMV676388] are 12.00% and 14.67%.
Regarding `O=C(c1n[nH]c2c1CCCC2)N1CCN(Cc2ccc3c(c2)OCO3)CC1` [MMV676389], the “PGI release, % of the Tx-100 control, 5d” value came out at 1.07% and the “PGI release, % of the Tx-100 control, 12d” value is given as 3.62%.
`O=C(Nc1cccnc1)c1c(O)c2cccc3c2n(c1=O)CC3` [MMV676395]: the “PGI release, % of the Tx-100 control, 5d” value is listed as -2.29% and the “PGI release, % of the Tx-100 control, 12d” value amounted to 0.06%.
For `CCS(=O)(=O)N(Cc1ccco1)Cc1cc2ccc(C)cc2[nH]c1=O` [MMV676398] the same measures were -0.33% and 4.91%.
Consider `c1coc(CNc2nc(N3CCCCC3)nc3ccccc23)c1` [MMV676401], for which the “PGI release, % of the Tx-100 control, 5d” value was -3.33%; the “PGI release, % of the Tx-100 control, 12d” value is 41.40%; the “PGI release, % … average, 5d” value was -0.0357%; the “PGI release, % … average, 12d” value is -0.23%.
Consider `CC(C)n1ncc2c(C(=O)NCC(c3cccs3)N3CCOCC3)cc(-c3ccccc3)nc21` (stereo not shown) [MMV676406], for which the “PGI release, % of the Tx-100 control, 5d” value amounted to 0.95% and the “PGI release, % of the Tx-100 control, 12d” value is listed as 2.38%.
In the same order, the values of `O=C(COc1cccc(F)c1)Nc1nc(-c2ccccn2)cs1` [MMV676409] are -3.57% and -0.58%.
For `CC(Oc1ccccc1)C(=O)Nc1nc(-c2ccccn2)cs1` (stereo not shown) [MMV676411] the same measures were 0.12% and 0.11%.
For `N#Cc1nc(-c2ccccc2)oc1S(=O)(=O)c1ccc(Cl)cc1` [MMV676412] the same measures were 0.33% and 0.62%.
